Key:
Assay type in all cases: in vivo, human
[1] = system: gastric cancer; assay: Treatment of gastric cancer patients with Varlitinib 400 mg bi-daily and cisplatin/capecitabine chemotherapy; conditions: for tolerability / dose limiting toxicity: 400 mg bi-daily with cisplatin and capecitabine; for dose limiting toxicity: first two treatment cycles
Protocol: Example 1 Treatment of Gastric Cancer with Valitinib 400 mg Bi-Daily Orally and Cisplatin/Capecitabine Combination Chemotherapy
person one with Her2 positive (3+) stage IV gastric cancer had progressive disease in the form of 2 target lesions following: • first line treatment with cisplatin and Xeloda® (capecitabine)—4 cycles, • second line treatment with the experimental drug TDM1 (an antibody drug conjugate comprising Herceptin®)—9 cycles, • third line treatment with experimental drug LJM716 (a Her3 monoclonal antibody) and Herceptin®.
After treatment cycle 4 with ASLAN001 400 mg bi-daily, cisplatin and capecitabine, see FIG. 1. […] The cisplatin and capecitabine regime was cisplatin 80 mg/m^2 IV infusion and capecitabine 1000 mg/m^2 orally twice daily for 14 days every 3 weeks.
person two with gastric cancer (4 target lesions) was given first line treatment of Valitinib 400 mg bi-daily, cisplatin and capecitabine. […] The cisplatin and capecitabine regime was cisplatin 80 mg/m^2 IV infusion and capecitabine 1000 mg/m^2 orally twice daily for 14 days every 3 weeks.

[2] = system: tumour; assay: Clinical data summary as of June 2016, Varlitinib combination arms
Text: As of June 2016 the following clinical data summary: […]

[3] = system: stage IV sigmoid colorectal cancer; assay: Treatment of stage IV sigmoid colorectal cancer patient with Varlitinib 300 mg BID and oxaliplatin/capecitabine; conditions: person, stage IV sigmoid colorectal cancer with metastasis, 300 mg bi-daily
Protocol: Example 4 Treatment of Stage IV Sigmoid Coloreactal Cancer with Varlitinib 300 mg BID Oxaliplatin/Capecitabine
A person with stage IV sigmoid colorectal cancer with metastasis to liver, lungs and lymph node.
The prior treatments included: • Anterior resection with right hemi-hepatetomy and cholecystecomy • XELOX (PD), XELIRI (PR), Irrinotecan & Cetuximab (SD) • Xeloda and Avastin (SD), Bayer PTEFb-CDK9 inhibitor (PD)
The treatment per 3 weeks cycle was 300 mg ASLAN001 orally bi-daily, oxaliplatin 130 mg/m^2 IV infusion (Day 1) and capecitabine 850 mg/m^2 (Day 1-14) until Cycle 6, then from Cycle 7+ onwards, Varlitinib 300 mg b-daily as monotherapy per 4 week cycle.

[4] = system: stage IV Cholangiocarcinoma and metastatic lymphadenopathy; assay: Treatment of stage IV cholangiocarcinoma and metastatic lymphadenopathy patient with Varlitinib and cisplatin/5FU; conditions: person, first line, 300 mg BID Varlitinib combined with Cis/5-FU
Protocol: Example 5 Treatment of Stage IV Cholangiocarcinoma and Metastatic Lymphadenopathy with Varlitinib 400 mg Bi-Daily Orally and Cisplatin/5FU Combination Chemotherapy A person with stage IV Cholangiocarcinoma and metastatic lymphadenopathy diagnosed in January 2016, no prior surgery or treatment was give first line treatment of 300 mg BID Varlitinib combined with Cis/5-FU, 28-day cycle.

[5] = system: gastric tumours co-expressing EGFR and HER2 or HER2 amplified; assay: Phase I monotherapy trial in gastric cancer patients, tumour biopsies analysed by immunohistochemistry; conditions: monotherapy 500 mg orally BID for 28 days, 23 patients; biopsies before and after treatment
Protocol: (R)—N4-[3-Chloro-4-(thiazol-2-ylmethoxy)-phenyl]-N6-(4-methyl-4,5,-dihydro-oxazol-2-yl)-quinazoline-4,6-diamine (Varlitinib Example 52 disclosed in WO2005/016346), is a small-molecule pan-HER inhibitor. It has been tested as a monotherapy in phase I clinical trials of gastric cancer patients. 23 patients, who had previously failed on one or more rounds of chemotherapy, and where eligible for trastuzumab, each received 500 mg of Varlitinib orally twice daily (BID) as monotherapy for 28 days. Tumour biopsies taken before and after treatment were analysed using immunohistochemistry.

[6] = system: bladder cancer; assay: Treatment of bladder cancer patient with 300 mg Valitinib and FOLFOX; conditions: person
Protocol: Example 7 Treatment of the Bladder Cancer with 300 mg Valitinib and FOLFOX A person was diagnosed with bladder cancer 2014. They received radical cystoprostatetomy and prior therapy with Cisplatin and radiotherapy (pelvis) on 20 Feb. 2014; gemcitabline and cisplatin on 10 Apr. 2015 with last dose on 8 May 2015. The patient received 9 cycles of 300 mg Valitinib BID and FOLFOX and 5 cycles of Varlitinib 300 mg monotherapy. The Valitinib in the combination therapy interruption from 21 to 27 Sep. 2015; 21 Oct. to 23 Oct.

[7] = system: stage IV cholangiocarcinoma; assay: Treatment of cholangiocarcinoma patients with Varlitinib bi-daily and cisplatin/capecitabine chemotherapy; conditions: person
Protocol: Example 2 Treatment of Cholangiocarcinoma with Varlitinib 400 mg Bi-Daily Orally and Cisplatin/Capecitabine Combination Chemotherapy A person with stage IV cholangiocarcinoma (3 lesions) had progressive disease following treatment with: • radiotherapy, and • gemcitabine (Gemzar®) and cisplatin—6 months. […] The cisplatin and capecitabine regime was cisplatin 80 mg/m^2 IV infusion and capecitabine 1000 mg/m^2 orally twice daily for 14 days every 3 weeks. Example 3 Treatment of Cholangiocarcinoma with Varlitinib 500 mg Bi-Daily Orally and Cisplatin/Capecitabine Combination Chemotherapy A person with stage IV cholangiocarcinoma had progressive disease following treatment with radiotherapy and bi-weekly 5-FU. […] The cisplatin and capecitabine regime was cisplatin 80 mg/m^2 IV infusion and capecitabine 1000 mg/m^2 orally twice daily for 14 days every 3 weeks.

[8] = system: intrahepatic bile duct cholangiocarcinoma; assay: Treatment of intrahepatic bile duct cholangiocarcinoma patient with Varlitinib and FOLFOX; conditions: person, progressive on gemcitabine and cisplatin; 9 cycles Varlitinib 400 mg reduced to 300 mg BID and FOLFOX, then 7 cycles monotherapy
Protocol: Example 6 Treatment of the Intrahepatic Bile Duct Cholangiocarcinoma with 300 mg Valitinib and FOLFOX A person diagnosed in 2013 with intrahepatic bile duct cholangiocarcinoma, had received surgery in the form of left hemihepatectomy in 15 Jul. 2013. Prior therapies were gemcitabine and cisplatin 14 Aug. 2013 with last dose 8 Jan. 2014 and repeated between 13 May 2015 and 1 Jul. 2015. With this treatment the status was progressive disease. The patient was give 9 cycles combination Varlitinib 400 mg reduced to 300 mg BID and FOLFOX. This was followed with 7 cycles of Valitinib monotherapy.

[9] = 9 cycles 300 mg BID and FOLFOX, then 5 cycles 300 mg monotherapy

C[C@@H]1COC(Nc2ccc3ncnc(Nc4ccc(OCc5nccs5)c(Cl)c4)c3c2)=N1 [Varlitinib, (R)—N4-[3-Chloro-4-(thiazol-2-ylmethoxy)-phenyl]-N6-(4-methyl-4,5,-dihydro-oxazol-2-yl)-quinazoline-4,6-diamine]
response after treatment cycle 4 ([1]; person one, Her2 positive (3+) stage IV gastric cancer, progressive after three prior lines, Varlitinib 400 mg bi-daily, cisplatin and capecitabine): 29% | tolerability ([1]; person one, gastric cancer): well tolerated | dose limiting toxicity ([1]; person one, gastric cancer): No dose limiting toxicity was observed | disease status category ([1]; person one, stage IV gastric cancer, after cycle 4 of Varlitinib 400 mg bi-daily, cisplatin and capecitabine): stable disease | response after cycle 4 ([1]; person two, gastric cancer (4 target lesions), first line, 400 mg bi-daily, cisplatin and capecitabine): 41% | tolerability ([1]; person two, gastric cancer): well tolerated | disease status designation ([1]; person two, gastric cancer, due to development of a new bone lesion): progression disease | dose limiting toxicity ([1]; person two, gastric cancer): No dose limiting toxicity was observed | Best response (% change) ([2]; Combo with cis/5-FU, 300 mg Varlitinib, 6 patients): −21% | Best response (% change) ([2]; Combo with cis/5-FU, 400 mg Varlitinib, 7 patients): −47% | Best response (% change) ([2]; Combo with cis/cap, 400 mg Varlitinib, 6 patients): −87% | Best response (% change) ([2]; Combo with cis/cap, 500 mg Varlitinib, 4 patients): −4% | response after 2 cycles (figure) [3]: 335 | response category after 2 cycles [3]: partial response | current disease status [4]: stable disease | tumor reduction at first response (C2) ([4]; 28-day cycle, 5 Mar. 2016): 16% | tumor reduction at last response (C4) ([4]; 28-day cycle, 17 May 2016): 13% | signs of clinical activity: cell survival and proliferation [5]: reduction in cell survival and cell proliferation | signs of clinical activity: signalling pathways [5]: downregulation of signalling pathways responsible for cell proliferation | adverse event leading to treatment interruption ([6]; 300 mg BID and FOLFOX combination therapy): G2 weight loss | best % tumour change [6, 9]: −4% | patient status [6, 9]: stable disease | tolerability ([7]; cholangiocarcinoma, 400 mg bi-daily with cisplatin and capecitabine): well tolerated | dose limiting toxicity ([7]; cholangiocarcinoma, first two treatment cycles, 400 mg bi-daily with cisplatin and capecitabine): No dose limiting toxicity was observed | response after treatment cycle 2 ([7]; stage IV cholangiocarcinoma, progressive after radiotherapy and 5-FU, Varlitinib orally 500 mg bi-daily, cisplatin and capecitabine): 4% | patient status [8]: partial response
